In assay [1] the target is T1, Recombinant (1-346) HPK1 (h) (Homo sapiens, UniProt Q92918).
T1 construct: Recombinant (1-346) HPK1 (h) is incubated with 8 mM MOPS pH 7.0
T1 sequence (Q92918 1-346): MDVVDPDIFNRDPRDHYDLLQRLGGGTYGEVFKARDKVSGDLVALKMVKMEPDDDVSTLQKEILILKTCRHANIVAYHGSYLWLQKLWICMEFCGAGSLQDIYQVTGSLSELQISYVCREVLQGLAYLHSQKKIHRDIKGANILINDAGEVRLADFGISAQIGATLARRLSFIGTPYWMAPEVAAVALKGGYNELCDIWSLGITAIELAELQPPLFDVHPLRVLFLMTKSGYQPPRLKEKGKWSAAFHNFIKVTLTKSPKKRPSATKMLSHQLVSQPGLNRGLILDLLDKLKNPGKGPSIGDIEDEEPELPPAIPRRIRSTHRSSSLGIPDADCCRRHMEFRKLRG
The experiment in a line: HPK1 Human STE Kinase Enzymatic Radiometric Assay. The class given is biochemical. To be noted: read-out: HPK1 IC50 nM Range*. On the procedure:
A stock solution of 10 mM of test compound is prepared in DMSO. The compound plate was prepared by 3-fold and 9-point serial dilutions. […] The reaction is initiated by The addition of the Mg/ATP mix. After incubation for 40 minutes at RT, the reaction is stopped by the addition of phosphoric acid to a concentration of 0.5%.

For the next assay, the target named is Lck (h) (Homo sapiens, UniProt P06239). The assay is described as follows: Lck Human  Kinase Enzymatic Radiometric Assay. The class given is biochemical. To be noted: read-out: Lck IC50 nM Range*. The method, boiled down:
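Substrate 33P-incorporation measured by scintillation counting after spotting on P30 filtermat and phosphoric acid washes. Human Lck reacted 40 min at RT in 50 mM Tris pH 7.5 with 10 mM MgAcetate, [gamma-33P]-ATP, 250 uM Cdc2 peptide, 0.1 mM EGTA and 0.1 mM Na3VO4.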

Bounds are passed on as bounds.

For eleven compounds, IC50 results are on record in patent US20240343704A1, “HALO-SUBSTITUTED AMINO PYRIDINE COMPOUNDS AS INHIBITORS OF THE HAEMATOPOIETIC PROGENITOR KINASE 1 (HPK1)” (priority 2021, published 2024).

Sequence of Lck (h) (P06239 whole entry): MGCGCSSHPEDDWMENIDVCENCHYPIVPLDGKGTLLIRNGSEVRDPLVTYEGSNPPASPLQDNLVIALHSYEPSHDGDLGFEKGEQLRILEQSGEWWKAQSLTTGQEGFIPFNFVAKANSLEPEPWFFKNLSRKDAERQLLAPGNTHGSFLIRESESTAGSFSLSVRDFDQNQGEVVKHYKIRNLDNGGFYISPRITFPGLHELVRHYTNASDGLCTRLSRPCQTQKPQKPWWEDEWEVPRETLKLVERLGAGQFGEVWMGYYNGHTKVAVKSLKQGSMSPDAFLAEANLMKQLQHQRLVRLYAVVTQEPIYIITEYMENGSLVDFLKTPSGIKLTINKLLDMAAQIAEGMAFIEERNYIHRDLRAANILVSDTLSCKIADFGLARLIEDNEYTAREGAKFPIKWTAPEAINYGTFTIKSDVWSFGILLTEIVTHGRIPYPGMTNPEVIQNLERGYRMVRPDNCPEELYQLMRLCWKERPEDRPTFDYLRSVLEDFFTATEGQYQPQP

A word on the IC50: it is the concentration needed to halve the response being measured. `Nc1nc(F)c(-c2ccc(S(=O)(=O)N3CCCC3)cc2)cc1-c1ccc2c(c1)CCNC2=O` [I-99, 6-(2-amino-6-fluoro-5-(4-(pyrrolidin-1-ylsulfonyl)phenyl)pyridin-3-yl)-3,4-dihydroisoquinolin-1(2H)-one]: the values for the IC50 (in assay [1]; on Lck (h)) were 11 to 100 nM and more than 1000 nM, respectively.

On to `CCN1CCCCC1c1ccc(-c2cc(-c3ccc4c(c3)CCNC4=O)c(N)nc2F)cc1` (stereo not shown) [I-100, 6-(2-amino-5-(4-(1-ethylpiperidin-2-yl)phenyl)-6-fluoropyridin-3-yl)-3,4-dihydroisoquinolin-1(2H)-one], for which the 50% inhibitory concentration (IC50) in assay [1] is 0.1 to 10 nM; on Lck (h), more than 1000 nM.

Consider `Nc1nc(F)c(-c2ccc(C3CCCCN3CC(F)F)cc2)cc1-c1ccc2c(c1)CCNC2=O` (stereo not shown) [I-101, 6-(2-amino-5-(4-(1-(2,2-difluoroethyl)piperidin-2-yl)phenyl)-6-fluoropyridin-3-yl)-3,4-dihydroisoquinolin-1(2H)-one], for which the figures for the IC50 (in assay [1]; at Lck (h)) were 11 to 100 nM and more than 1000 nM, respectively.

As to `CCN1CCOC(c2ccc(-c3cc(-c4ccc5c(c4)CCNC5=O)c(N)nc3F)cc2)C1` (stereo not shown) [I-102, 6-(2-amino-5-(4-(4-ethylmorpholin-2-yl)phenyl)-6-fluoropyridin-3-yl)-3,4-dihydroisoquinolin-1(2H)-one], the IC50 in assay [1] was 11 to 100 nM; on Lck (h), more than 1000 nM.

`Nc1nc(F)c(-c2ccc(C3CN(CC(F)F)CCO3)cc2)cc1-c1ccc2c(c1)CCNC2=O` (stereo not shown) [I-103, 6-(2-amino-5-(4-(4-(2,2-difluoroethyl)morpholin-2-yl)phenyl)-6-fluoropyridin-3-yl)-3,4-dihydroisoquinolin-1(2H)-one]: the IC50 in assay [1] was 11 to 100 nM; on Lck (h), more than 1000 nM.

For the compound `CC(C)N1CCCCC1c1ccc(-c2cc(-c3ccc4c(c3)CCNC4=O)c(N)nc2F)cc1` (stereo not shown) [I-104, 6-(2-amino-6-fluoro-5-(4-(1-isopropylpiperidin-2-yl)phenyl)pyridin-3-yl)-3,4-dihydroisoquinolin-1(2H)-one], the half-inhibitory concentration (IC50) is 0.1 to 10 nM in assay [1] and more than 1000 nM on Lck (h).

Regarding `CC(C)N1CCOC(c2ccc(-c3cc(-c4ccc5c(c4)CCNC5=O)c(N)nc3F)cc2)C1` (stereo not shown) [I-105, 6-(2-amino-6-fluoro-5-(4-(4-isopropylmorpholin-2-yl)phenyl)pyridin-3-yl)-3,4-dihydroisoquinolin-1(2H)-one], the half-maximal inhibitory concentration (IC50) in assay [1] was 0.1 to 10 nM; on Lck (h), more than 1000 nM.

As to `CN1C[C@@H]2C[C@]2(c2ccc(-c3cc(-c4ccc5c(c4)CCNC5=O)c(N)nc3F)cc2)C1` [I-106, 6-(2-amino-6-fluoro-5-(4-((1S,5R)-3-methyl-3-azabicyclo[3.1.0]hexan-1-yl)phenyl)pyridin-3-yl)-3,4-dihydroisoquinolin-1(2H)-one], the IC50 in assay [1] was 0.1 to 10 nM; on Lck (h), more than 1000 nM.

Take `COCCN1CCC(c2ccc(-c3cc(-c4ccc5c(c4)CCNC5=O)c(N)nc3F)cc2)CC1` [I-107, 6-(2-amino-6-fluoro-5-(4-(1-(2-methoxyethyl)piperidin-4-yl)phenyl)pyridin-3-yl)-3,4-dihydroisoquinolin-1(2H)-one]: the IC50 was 0.1 to 10 nM in assay [1] and more than 1000 nM at Lck (h).

On to `C[C@@H]1COCCN1c1ccc(-c2cc(-c3ccc4c(c3)CCNC4=O)c(N)nc2F)c(F)c1` [I-108, (R)-6-(2-amino-6-fluoro-5-(2-fluoro-4-(3-methylmorpholino)phenyl)pyridin-3-yl)-3,4-dihydroisoquinolin-1(2H)-one], for which the IC50 is 11 to 100 nM in assay [1] and more than 1000 nM at Lck (h).

`Nc1nc(F)c(-c2ccc(C3=CCNC3)cc2)cc1-c1ccc2c(c1)CCNC2=O` [I-109, 6-(2-amino-5-(4-(2,5-dihydro-1H-pyrrol-3-yl)phenyl)-6-fluoropyridin-3-yl)-3,4-dihydroisoquinolin-1(2H)-one 2,2,2-trifluoroacetate]: the IC50 in assay [1] is 0.1 to 10 nM; at Lck (h) it was more than 1000 nM.
